Here are results for 32 molecules from patent US8658646B2, “Pyrrolopyrazine kinase inhibitors” (Hoffmann-LaRoche Inc., priority 2011, dated 2014).

Molecules are shown by their SMILES.

In this assay the target is T1, recombinant human SYK360-635 (Homo sapiens, UniProt P43405).
T1 construct: made in house
Put plainly: Determination of IC50 of Spleen Tyrosine Kinase (SYK) inhibition, 33P ATP filtration assay. The conditions noted are these: SYK aa 360-635 0.5 nM; ATP 20 μM, peptide 5 μM, 0.1% BSA; read-out: SYK_ENZYME_FILTRATION/v1, BSA. It counts as biochemical.
For the molecule `Cn1nc(-c2cnc3[nH]cc(C(=O)Nc4cccnc4)c3n2)c2ccc(Cl)cc21` [Example I-405, 2-(6-Chloro-1-methyl-1H-indazol-3-yl)-5H-pyrrolo[2,3-b]pyrazine-7-carboxylic acid pyridin-3-ylamide], the IC50 worked out at 186 nM.

Consider `Cn1nc(-c2cnc3[nH]cc(C(=O)NC4(C)CCNC4)c3n2)c2ccc(F)cc21` (centres unmarked) [Example I-406, 2-(6-Fluoro-1-methyl-1H-indazol-3-yl)-5H-pyrrolo[2,3-b]pyrazine-7-carboxylic acid (3-methyl-pyrrolidin-3-yl)-amide], for which the IC50 came to 87.3 nM.

On to `Cn1nc(-c2cnc3[nH]cc(C(=O)NC(C)(C)C#N)c3n2)c2ccc(Cl)cc21` [Example I-407, 2-(6-Chloro-1-methyl-1H-indazol-3-yl)-5H-pyrrolo[2,3-b]pyrazine-7-carboxylic acid (cyano-dimethyl-methyl)-amide], for which the IC50 is 5.8 nM.

Turning to `Cn1nc(-c2cnc3[nH]cc(C(=O)NC(C)(C)CCCN)c3n2)c2ccc(F)cc21` [Example I-408, 2-(6-Fluoro-1-methyl-1H-indazol-3-yl)-5H-pyrrolo[2,3-b]pyrazine-7-carboxylic acid (4-amino-1,1-dimethyl-butyl)-amide], the IC50 stood at 52.7 nM.

Consider `Cn1nc(-c2cnc3[nH]cc(C(=O)NC4(C)CNC4)c3n2)c2ccc(F)cc21` [Example I-409, 2-(6-Fluoro-1-methyl-1H-indazol-3-yl)-5H-pyrrolo[2,3-b]pyrazine-7-carboxylic acid (3-methyl-azetidin-3-yl)-amide], for which the IC50 is 317 nM.

With `Cn1nc(-c2cnc3[nH]cc(C(=O)NC(C)(C)C)c3n2)c2ccccc21` [Example I-410, 2-(1-Methyl-1H-indazol-3-yl)-5H-pyrrolo[2,3-b]pyrazine-7-carboxylic acid tert-butylamide], the IC50 worked out at 4.7 nM.

On to `CC(C)(C)NC(=O)c1c[nH]c2ncc(-c3n[nH]c4cc(F)ccc34)nc12` [Example I-411, 2-(6-Fluoro-1H-indazol-3-yl)-5H-pyrrolo[2,3-b]pyrazine-7-carboxylic acid tert-butylamide], for which the IC50 came out at 95.4 nM.

As for `Cn1nc(-c2cnc3[nH]cc(C(=O)NC(C)(C)C)c3n2)c2cc(C(F)(F)F)ccc21` [Example I-412, 2-(1-Methyl-5-trifluoromethyl-1H-indazol-3-yl)-5H-pyrrolo[2,3-b]pyrazine-7-carboxylic acid tert-butylamide], the IC50 turned out to be 73.6 nM.

For the molecule `CC(O)C(C)(C)NC(=O)c1c[nH]c2ncc(-c3nn(C)c4cc(Cl)ccc34)nc12` (centres unmarked) [Example I-413, 2-(6-Chloro-1-methyl-1H-indazol-3-yl)-5H-pyrrolo[2,3-b]pyrazine-7-carboxylic acid (2-hydroxy-1,1-dimethyl-propyl)-amide], the IC50 was determined as 34.6 nM.

For the molecule `CC(C)(CO)NC(=O)c1c[nH]c2ncc(-c3n[nH]c4cc(Cl)ccc34)nc12` [Example I-414, 2-(6-Chloro-1H-indazol-3-yl)-5H-pyrrolo[2,3-b]pyrazine-7-carboxylic acid (2-hydroxy-1,1-dimethyl-ethyl)-amide], the IC50 stood at 5.25 nM.

`Cn1nc(-c2cnc3[nH]cc(C(=O)NC(C)(C)CCN)c3n2)c2ccc(F)cc21` [Example I-415, 2-(6-Fluoro-1-methyl-1H-indazol-3-yl)-5H-pyrrolo[2,3-b]pyrazine-7-carboxylic acid (3-amino-1,1-dimethyl-propyl)-amide]: the IC50 amounted to 322 nM.

Take `Cn1nc(-c2cnc3[nH]cc(C(=O)N[C@]4(C)CC[C@@H](N)CC4)c3n2)c2ccc(F)cc21` [Example I-416, 2-(6-Fluoro-1-methyl-1H-indazol-3-yl)-5H-pyrrolo[2,3-b]pyrazine-7-carboxylic acid (trans-4-amino-1-methyl-cyclohexyl)-amide]: the IC50 came out at 1.95 nM.

In the case of `Cn1nc(-c2cnc3[nH]cc(C(=O)N[C@]4(C)CC[C@H](N)CC4)c3n2)c2ccc(F)cc21` [Example I-417, 2-(6-Fluoro-1-methyl-1H-indazol-3-yl)-5H-pyrrolo[2,3-b]pyrazine-7-carboxylic acid (cis-4-amino-1-methyl-cyclohexyl)-amide], the IC50 amounted to 787 nM.

Regarding `CC(C)(C)NC(=O)c1c[nH]c2ncc(-c3nn(CC(F)(F)F)c4cc(F)ccc34)nc12` [Example I-418, 2-[6-Fluoro-1-(2,2,2-trifluoro-ethyl)-1H-indazol-3-yl]-5H-pyrrolo[2,3-b]pyrazine-7-carboxylic acid tert-butylamide], the IC50 turned out to be 19.9 nM.

As for `C[C@@H](CO)NC(=O)c1c[nH]c2ncc(-c3n[nH]c4cc(Cl)ccc34)nc12` [Example I-419, 2-(6-Chloro-1H-indazol-3-yl)-5H-pyrrolo[2,3-b]pyrazine-7-carboxylic acid ((S)-2-hydroxy-1-methyl-ethyl)-amide], the IC50 came out at 6.9 nM.

As to `Cn1nc(-c2cnc3[nH]cc(C(=O)NC(C)(C)C)c3n2)c2ccc(C(F)(F)F)cc21` [Example I-420, 2-(1-Methyl-6-trifluoromethyl-1H-indazol-3-yl)-5H-pyrrolo[2,3-b]pyrazine-7 carboxylic acid tert-butylamide], the IC50 stood at 33.5 nM.

In the case of `CC(C)(C)NC(=O)c1c[nH]c2ncc(-c3cccc4cn[nH]c34)nc12` [Example I-421, 2-(1H-Indazol-7-yl)-5H-pyrrolo[2,3-b]pyrazine-7-carboxylic acid tert-butylamide], the IC50 was found to be 163 nM.

Regarding `Cc1ccc2c(-c3cnc4[nH]cc(C(=O)NC5(C#N)CC5)c4n3)nn(C)c2c1` [Example I-424, 2-(1,6-Dimethyl-1H-indazol-3-yl)-5H-pyrrolo[2,3-b]pyrazine-7-carboxylic acid (1-cyano-cyclopropyl)-amide], the IC50 is 7.7 nM.

For the molecule `Cc1ccc2c(-c3cnc4[nH]cc(C(=O)NC(C)(C)CO)c4n3)nn(CCN(C)C)c2c1` [Example I-426, 2-[1-(2-Dimethylamino-ethyl)-6-methyl-1H-indazol-3-yl]-5H-pyrrolo[2,3-b]pyrazine-7-carboxylic acid (2-hydroxy-1,1-dimethyl-ethyl)-amide], the IC50 stood at 57.4 nM.

Turning to `Cc1ccc2c(-c3cnc4[nH]cc(C(=O)NC(C)(C)C)c4n3)nn(CCCN(C)C)c2c1` [Example I-427, 2-[1-(3-Dimethylamino-propyl)-6-methyl-1H-indazol-3-yl]-5H-pyrrolo[2,3-b]pyrazine-7-carboxylic acid tert-butylamide], the IC50 is 13.3 nM.

With `Cc1ccc2c(-c3cnc4[nH]cc(C(=O)NC(C)(C)C5CC5)c4n3)nn(C)c2c1` [Example I-428, 2-(1,6-Dimethyl-1H-indazol-3-yl)-5H-pyrrolo[2,3-b]pyrazine-7-carboxylic acid (1-cyclopropyl-1-methyl-ethyl)-amide], the IC50 came out at 11.9 nM.

`Cc1ccc2c(-c3cnc4[nH]cc(C(=O)NC5(CO)CC5)c4n3)nn(C)c2c1` [Example I-429, 2-(1,6-Dimethyl-1H-indazol-3-yl)-5H-pyrrolo[2,3-b]pyrazine-7-carboxylic acid (1-hydroxymethyl-cyclopropyl)-amide]: the IC50 came to 12.5 nM.

Regarding `Cc1ccc2c(-c3cnc4[nH]cc(C(=O)NC(C)(C)CN(C)C)c4n3)nn(C)c2c1` [Example I-430, 2-(1,6-Dimethyl-1H-indazol-3-yl)-5H-pyrrolo[2,3-b]pyrazine-7-carboxylic acid (2-dimethylamino-1,1-dimethyl-ethyl)-amide], the IC50 amounted to 1360 nM.

Take `Cc1ccc2c(-c3cnc4[nH]cc(C(=O)NC5(C)CCNC5)c4n3)n[nH]c2c1` (centres unmarked) [Example I-431, 2-(6-Methyl-1H-indazol-3-yl)-5H-pyrrolo[2,3-b]pyrazine-7-carboxylic acid (3-methyl-pyrrolidin-3-yl)-amide]: the IC50 is 20.7 nM.

Consider `Cc1ccc2c(-c3cnc4[nH]cc(C(=O)NC5(CO)CC5)c4n3)n[nH]c2c1` [Example I-432, 2-(6-Methyl-1H-indazol-3-yl)-5H-pyrrolo[2,3-b]pyrazine-7-carboxylic acid (1-hydroxymethyl-cyclopropyl)-amide], for which the IC50 stood at 5.6 nM.

Consider `Cc1ccc2c(-c3cnc4[nH]cc(C(=O)NC(C)(C)C5CC5)c4n3)n[nH]c2c1` [Example I-433, 2-(6-Methyl-1H-indazol-3-yl)-5H-pyrrolo[2,3-b]pyrazine-7-carboxylic acid (1-cyclopropyl-1-methyl-ethyl)-amide], for which the IC50 worked out at 8.55 nM.

Regarding `Cc1ccc2c(-c3cnc4[nH]cc(C(=O)NC(C)(C)CO)c4n3)n[nH]c2c1` [Example I-434, 2-(6-Methyl-1H-indazol-3-yl)-5H-pyrrolo[2,3-b]pyrazine-7-carboxylic acid (2-hydroxy-1,1-dimethyl-ethyl)-amide], the IC50 is 4.6 nM.

Regarding `Cc1ccc2c(-c3cnc4[nH]cc(C(=O)NC(C)(C)CN)c4n3)n[nH]c2c1` [Example I-435, 2-(6-Methyl-1H-indazol-3-yl)-5H-pyrrolo[2,3-b]pyrazine-7-carboxylic acid (2-amino-1,1-dimethyl-ethyl)-amide], the IC50 is 16.7 nM.

Take `Cc1ccc2c(-c3cnc4[nH]cc(C(=O)NC(C)(C)CN(C)C)c4n3)n[nH]c2c1` [Example I-436, 2-(6-Methyl-1H-indazol-3-yl)-5H-pyrrolo[2,3-b]pyrazine-7-carboxylic acid (2-dimethylamino-1,1-dimethyl-ethyl)-amide]: the IC50 turned out to be 47.9 nM.

As for `Cc1ccc2c(-c3cnc4[nH]cc(C(=O)NC5(C#N)CC5)c4n3)n[nH]c2c1` [Example I-437, 2-(6-Methyl-1H-indazol-3-yl)-5H-pyrrolo[2,3-b]pyrazine-7-carboxylic acid (1-cyano-cyclopropyl)-amide], the IC50 was 3.95 nM.

`Cc1ccc2c(-c3cnc4[nH]cc(C(=O)NC(C)(C)CO)c4n3)nn(CCCN3CCOCC3)c2c1` [Example I-438, 2-[6-Methyl-1-(3-morpholin-4-yl-propyl)-1H-indazol-3-yl]-5H-pyrrolo[2,3-b]pyrazine-7-carboxylic acid (2-hydroxy-1,1-dimethyl-ethyl)-amide]: the IC50 amounted to 27.4 nM.

Consider `Cc1ccc2c(-c3cnc4[nH]cc(C(=O)NC(C)(C)CO)c4n3)nn(CC(=O)N3CCOCC3)c2c1` [Example I-439, 2-[6-Methyl-1-(2-morpholin-4-yl-2-oxo-ethyl)-1H-indazol-3-yl]-5H-pyrrolo[2,3-b]pyrazine-7-carboxylic acid (2-hydroxy-1,1-dimethyl-ethyl)-amide], for which the IC50 was found to be 9.7 nM.
